Reference: US20250186584A1, “METHODS OF TREATING BILIARY TRACT CANCER USING ANTI-PD-L1 ANTIBODY IN COMBINATION WITH CHEMOTHERAPY” (ASTRAZENECA AB, priority 2022, published 2025)
Where “and” joins values, the source holds several entries; their conditions need not be identical. Equal entries are not always repeated. Entries after “also recorded” stand apart in the source; their conditions may differ.

Tests used:
[1] = system: unresectable, locally advanced, or metastatic biliary tract cancer; assay: TOPAZ-1 phase 3 study: efficacy of durvalumab or placebo plus gemcitabine and cisplatin (OS, PFS, tumor response per RECIST v1.1); type: in vivo, human; conditions: for Difference in overall survival: versus placebo plus gemcitabine and cisplatin; for Objective response rate: investigator assessment, RECIST v1.1, patients with measurable disease at baseline
Experimental: This is a randomized, double-blind, placebo controlled, multi-center, global, Phase III study which determined the efficacy and safety of first-line treatment with durvalumab in combination with gemcitabine/cisplatin versus placebo in combination with gemcitabine/cisplatin in patients with previously untreated, unresectable, locally advanced, or metastatic BTC.
Arm A: Durvalumab plus gemcitabine/cisplatin combination therapy. Durvalumab 1500 mg via intravenous (IV) infusion q3w, starting on Cycle 1 in combination with cisplatin 25 mg/m^2 and gemcitabine 1000 mg/m^2 (each administered on Days 1 and 8 q3w) up to 8 cycles, followed by durvalumab 1500 mg as monotherapy q4w until clinical progression or RECIST 1.1-defined radiological progressive disease (PD), unless there is unacceptable toxicity, withdrawal of consent, or another discontinuation criterion is met.
Arm B: Placebo plus gemcitabine/cisplatin therapy. Placebo via IV infusion q3w, starting on Cycle 1 in combination with cisplatin 25 mg/m^2 and gemcitabine 1000 mg/m^2 (each administered on Days 1 and 8 q3w) up to 8 cycles, followed by placebo monotherapy q4w until clinical progression or RECIST 1.1-defined radiological PD, unless there is unacceptable toxicity, withdrawal of consent, or another discontinuation criterion is met.
Adults aged ≥18 years with histologically confirmed unresectable, locally advanced, or metastatic adenocarcinoma of the biliary tract, including intrahepatic or extrahepatic cholangiocarcinoma and gallbladder carcinoma, were eligible for inclusion. Eligible patients included those with previously untreated disease that was unresectable or metastatic at initial diagnosis and those who developed recurrent disease >6 months after surgery with curative intent and >6 months after the completion of adjuvant therapy. Other inclusion criteria included an Eastern Cooperative Oncology Group (ECOG) performance status of 0 or 1, ≥1 measurable lesion per Response Evaluation Criteria in Solid Tumors (RECIST) v1.1, and no prior exposure to immune-meditated therapy. Patients were excluded if they had ampullary carcinoma, active or prior documented autoimmune or inflammatory disorders, or known allergy or hypersensitivity to any study treatment.
TOPAZ-1 was a phase 3, randomized, double-blind, placebo-controlled, global study. Patients were randomly assigned in a 1:1 ratio to receive durvalumab in combination with gemcitabine and cisplatin or placebo in combination with gemcitabine and cisplatin.
Baseline tumor assessments were performed using images acquired≤28 days before randomization. During the study period, tumor assessments were performed every 6 weeks (±1 week) for the first 24 weeks after randomization, and then every 8 weeks (±1 week) thereafter, until radiological disease progression, followed by ≥1 additional follow-up scan. Survival assessments were performed every 2 months following treatment discontinuation. Patients on treatment or in survival follow-up were contacted following the data cutoff for the interim analysis to provide complete survival data. Newly acquired tumor biopsy samples or archival samples taken≤3 years prior to screening were obtained by an image-guided core needle or by excision from all screened patients. Tissue samples were retrospectively evaluated for programmed cell death ligand 1 (PD-L1) expression by the Ventana PD-L1 (SP263) immunohistochemistry assay in all randomized patients using the tumor area positivity (TAP) score method. “TAP” is the proportion of tumor and/or immune cells with PD-L1 staining at any intensity and can be used interchangeably with “TIP.” A TAP score of ≥1% was defined as PD-L1 staining of any intensity in tumor cell membranes and/or tumor-associated immune cells covering ≥1% of the tumor area. A TAP score of <1% was defined as PD-L1 staining of any intensity in tumor cell membranes and/or tumor-associated immune cells covering <1% of tumor area. […]

xenograft model = conditions: via a T-cell dependent mechanism; cited from earlier work
PD-L1 = PD-L1 (Homo sapiens, UniProt Q9NZQ7); conditions: in vitro; cited from earlier work
[2] = patients with objective response

PD-L1, sequence (Q9NZQ7 19-290): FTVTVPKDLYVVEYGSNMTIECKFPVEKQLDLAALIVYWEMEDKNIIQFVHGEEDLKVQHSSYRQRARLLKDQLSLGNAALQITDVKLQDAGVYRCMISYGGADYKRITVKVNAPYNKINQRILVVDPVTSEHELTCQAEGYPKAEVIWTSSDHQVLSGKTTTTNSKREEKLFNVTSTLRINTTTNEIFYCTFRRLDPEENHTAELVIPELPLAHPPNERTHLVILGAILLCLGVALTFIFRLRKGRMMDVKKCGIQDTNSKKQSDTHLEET

Durvalumab plus Gemcitabine and Cisplatin: Durvalumab 1500 mg IV q3w with cisplatin 25 mg/m^2 and gemcitabine 1000 mg/m^2 up to 8 cycles, then durvalumab monotherapy q4w
Abdominal pain upper, Grade 3/4 (adverse events of any causality): 0 no. | Adrenal insufficiency, Grade 3 or 4 (immune-mediated adverse events): 0 no. | Hyperthyroid events, Grade 3 or 4 (immune-mediated adverse events): 0 no. | Hypophysitis, Grade 3 or 4 (immune-mediated adverse events): 0 no. | Hypothyroid events, Grade 3 or 4 (immune-mediated adverse events): 0 no. | Myositis, Any Grade (immune-mediated adverse events): 0 no. | Myositis, Grade 3 or 4 (immune-mediated adverse events): 0 no. | Pancreatic events, Grade 3 or 4 (immune-mediated adverse events): 0 no. | Renal events, Any Grade (immune-mediated adverse events): 0 no. | Renal events, Grade 3 or 4 (immune-mediated adverse events): 0 no. | Thyroiditis, Grade 3 or 4 (immune-mediated adverse events): 0 no. | Difference in overall survival ([1]; at 12 months): 6% | Difference in overall survival ([1]; at 18 months): 10% | Difference in overall survival ([1]; at 24 months): 15% | Median overall survival (95% CI) ([1]; full analysis set): 12.8 months | Objective response rate ([1]; listed as durvalumab+GemCis): 26.7% | Median duration of response [1, 2]: 6.4 mo | Median time to response [1, 2]: 1.6 mo | Percentage of patients with continued response ([1]; ≥3 months): 88.9% | Percentage of patients with continued response ([1]; ≥6 months): 59.3% | Percentage of patients with continued response ([1]; ≥9 months): 32.6% | Percentage of patients with continued response ([1]; ≥12 months): 26.1%

durvalumab: antibody that selectively binds PD-L1 and blocks the binding of PD-L1 to PD-1 and CD80 receptors
Additional toxicity to that observed with chemotherapy (in vivo): did not add additional toxicity | Anemia, Any Grade (in vivo): 48.2% | Any immune-mediated adverse event, Any Grade (in vivo): 12.7% | Any immune-mediated adverse event, Grade 3 or 4 (in vivo): 2.4% | Constipation, Any Grade (in vivo): 32.0% | Events in the other rare/miscellaneous category of immune-mediated adverse events (in vivo): immune-mediated arthritis | Nausea, Any Grade (in vivo): 40.2% | Neutropenia, Any Grade (in vivo): 31.7% | Treatment-related adverse event leading to discontinuation of any study treatment (in vivo): 8.9% | Tumor growth in a xenograft model (xenograft model): inhibits tumor growth | Benefit of the addition of durvalumab to gemcitabine and cisplatin, subgroup analysis of overall survival ([1]; FIG. 8): observed across all subgroups | Benefit of the addition of durvalumab to gemcitabine and cisplatin, overall survival by PD-L1 expression ([1]; TAP score, Ventana PD-L1 (SP263) assay): observed across PD-L1 expression; also recorded: observed regardless of PD-L1 expression | Overall survival hazard ratio (95% CI) ([1]; after 6 months, durvalumab versus placebo): 0.74 (0.58-0.94) | Estimated overall survival rate (95% CI) ([1]; at 12 months): 54.1% | Estimated overall survival rate (95% CI) ([1]; at 18 months): 35.1% | Estimated overall survival rate (95% CI) ([1]; at 24 months): 24.9% | Overall survival hazard ratio ([1]; durvalumab versus placebo, each plus gemcitabine and cisplatin, 95% CI 0.66-0.97, P=0.021): 0.80 | Hazard ratio for progression-free survival ([1]; durvalumab versus placebo, 95% CI 0.63-0.89, P=0.001): 0.75 | Objective response rate odds ratio ([1]; durvalumab versus placebo, 95% CI 1.11-2.31): 1.60 | Median (95% CI) progression-free survival ([1]; full analysis set): 7.2 months and 7.2 (6.7-7.4) months | Median overall survival (95% CI) ([1]; full analysis set): 12.8 (11.1-14.0) months | Objective response rate [1]: 26.7% | Hazard ratio for overall survival ([1]; patients with PD-L1 TAP score of >1%, durvalumab versus placebo, 95% CI 0.61-1.00): 0.79 | Hazard ratio for overall survival ([1]; patients with TAP score <1%, durvalumab versus placebo, 95% CI 0.60-1.23): 0.86 | Overall survival hazard ratio (95% CI) ([1]; up to 6 months, durvalumab versus placebo): 0.91 (0.66-1.26) | Percentage of patients with continued response ([1]; ≥9 months): 32.6% | Percentage of patients with continued response ([1]; ≥12 months): 26.1% | PD-L1-mediated suppression of human T-cell activation (PD-L1): can relieve PD-L1-mediated suppression of human T-cell activation
